The results in this text go back to patent US11013673B2, “Cosmetic compositions containing quinones and their topical use on skin and hair” (Repairogen Corp, priority 2016, dated 2021).

The test system of one data set is human fibroblast cell. As to the kind of experiment: Human Fibroblast Cell Assay: CPD ELISA of DNA damage after UVB. It counts as cell-based. The settings on record: UVB 35 mJ/cm^2, 12 hours. On the procedure: Lastly, tests were conducted on human skin cells. The testing was performed using neonatal foreskin […], a type of skin cell that is a common model for skin testing across the cosmetic industry. The skin cells were purchased from Thermo Fisher Scientific Co. (NY) and grown in Dulbecco Modified Eagle Medium (DMEM) supplemented with 10% Fetal Bovine Serum (Thermo Fisher Scientific). Cultures were maintained at 37° C. within an air atmosphere of 5% carbon dioxide and about 95% humidity.
The skin cells were seeded in 12-well plates and incubated for 24 hours. After incubation, the cells were washed in […] (PBS) and irradiated with UVB at a dosage of 35 mJ/cm^2 using a Viber Lourmat BIO-Sun System (Marne-la-Vallee, France). The test compounds and control materials were added to the medium immediately following UVB irradiation; the treated mediums were allowed to continue for 12 hours at 37° C. under the air atmosphere with 5% carbon dioxide at about 95% humidity. In parallel, each test compound was added to non-irradiated cells as baseline controls. Untreated cells were used as negative controls. All treatments were performed in triplicate. Dosage levels for samples were 12.5 microMolar except lapachol dosed at 3 microMolar. Following incubation, the cells were washed with PBS, collected and stored at −80° C.
DNA was extracted from the collected cells using a QIAamp Blood Kit (QIAGEN, Calif., USA) in accordance with the manufacturer's protocol. The amounts of cyclobutane pyrimidine dimers (CPDs) in the various samples were determined by the CPD ELISA protocol. In accordance with this protocol, an OXISELECT® UV-Induced DNA Damage ELISA Kit (Cell Biolabs Inc., CA, USA) was employed for the testing done in accordance with the manufacturer's instructions. Amounts of CPD in UVB-treated samples were determined in percentage relative to the value of untreated fibroblasts. The greater the measured % CPD, the greater the DNA damage. Thus, in the Table below, the smaller the “Avg (% Untreated)” value, the better is the UVB damage induced inhibitory effect.
Mean standard deviation comparisons between data groups employed the GraphPad Prism 6.05 software (GraphPad Software, CA, USA). Statistical analysis was performed using ANOVA with Holm-Sidak's test or unpaired t-test with Welch's correction.
In general terms: In an ELISA, binding on a coated surface is turned into a signal by an enzyme label.

Data set [1] has as its system primary human keratinocytes. As to the kind of experiment: cytotoxicity assay (Cell Titer96 Aqueous One) on keratinocytes. The format is cell-based. The settings on record: 24 h. How it is done: (§1) Normal primary adult human keratinocytes derived from a donor were purchased from PromoCell (Heidelberg, Germany) and cultured in keratinocytes growth medium (Epilife+EDGS, Thermo Fisher Scientific, NY, USA). Keratinocytes cultures were maintained at 37° C. with 5% CO2 and ˜95% humidity.
(§2) Cytotoxicity was evaluated using the Cell Titer96 Aqueous One (Promega, Wis., USA) basic test according to manufacturer's instructions. Cells were seeded at a density of 10,000 cells/well in a 96-well plate and cultured overnight. Treatments with seven doses of compounds were carried out for 24 hours, in triplicates. Colorimetric analysis was performed using an absorbance of 490 nm. Inhibition of viability of more than 20% of the control values was considered cytotoxic.
The cytotoxicity assay on primary human keratinocytes from adult donor was performed after 24 h of culture in the presence of different concentrations of each compound, as indicated in FIG. 2A and Table 1.

Data set [2] concerns primary human fibroblasts. As to the kind of experiment: cytotoxicity assay (Cell Titer96 Aqueous One) on fibroblasts. The settings on record: 24 h. How it is done: Normal human dermal adult fibroblasts derived from a donor of were purchased from CELLnTec (Bern, Switzerland) and grown in DMEM supplemented with 10% FBS (Life Technologies, CA, USA). Fibroblasts cultures were maintained at 37° C. with 5% CO2 and ˜95% humidity.
as §2
The cytotoxicity assay on primary human fibroblasts from adult donor was performed after 24 h of culture in the presence of different concentrations of each compound, as indicated in FIG. 2B and Table 2.

Data set [3] has as its system human epidermal keratinocytes. As to the kind of experiment: microarray analysis of differential gene expression in keratinocytes. The settings on record: for number of genes downregulated / number of genes upregulated: 24 h. On the procedure:
as §1
Normal primary human keratinocytes were seeded in 6-well plates and incubated for 24 h. Cells were then washed in PBS (Thermo Fisher Scientific) and reincubated for 24 more hours in the presence of RGN1518 and RGN1538 (each at two different concentrations), vehicle control, or positive control. Following treatment, the cells were washed with PBS, collected and stored frozen at −80° C. before RNA extraction.
RNA was extracted using a Qiagen RNeasy kit (Qiagen, CA, USA) according to manufacturer's protocol.
18 vials containing RNA isolated from human epidermal keratinocytes and 18 vials containing RNA isolated from human fibroblasts were shipped to Thermo Fisher Scientific, Advanced BioMedical Laboratories (Cinnaminson, N.J.) on dry ice for Affymetrix Human Clariom D array processing.
The differential gene expression was obtained using a threshold of 0.05 for statistical significance (p-value) and a log fold change of expression with absolute value of at least 1. Gene expression was further analysed using Differential Expression Analysis and Pathway Analysis iPathwayGuide) by Advaita Bioinformatics Services (Plymouth, Mich.) in the context of pathways obtained from the Kyoto Encyclopedia of Genes and Genomes (KEGG) database (Release 84.0+/10-26, October 17) (Kanehisa et al., 2000; Kanehisa et al., 2002), gene ontologies from the Gene Ontology Consortium database (2017 Nov. 6) (Ashburner et al., 2000; Gene Ontology Consortium, 2001), miRNAs from the miRBase (Release 21) and […] (Targetscan version:Mouse:7.1, Human:7.1) databases (Agarwal et al., 2015; Nam et al., 2014; Griffiths-Jones et al., 2008; Kozomara and Griffiths-Jones, 2014; Friedman et al., 2009; Grimson et al., 2007), and diseases from the KEGG database (Release 84.0+/10-26, October 17) (Kanehisa et al., 2000; Kanehisa et al., 2002). All references are available in the reports for bioinformatics analysis of differential gene expression provided by Advaita Bioinformatics Services at the following link.

The subject of the next data set is human fibroblasts. In words: microarray analysis of differential gene expression in fibroblasts. The format is cell-based.
Data set [4] concerns the target CUL4A (Homo sapiens, UniProt Q13619). As to the kind of experiment: BPB-CUL4A AlphaLISA assay (cell free CUL4 inhibition assay). The format is biochemical. On the procedure:
(§3) A BPB-CUL4A AlphaLISA assay was performed using the 54 compounds to determine their CUL4A inhibitory properties in vitro. Next, these 54 leads were tested for their cell-based inhibitory activity against CUL4A. A first cell-based assay involved the inhibition of DNA damage-binding protein 2 (DDB2) degradation in mouse embryonic fibroblast (MEF) cells in vitro. To determine the specificity of the compounds, another cell-based assay was performed to determine the inhibition of IKBa degradation in HeLa cells in vitro. Preferably, the compounds show high DDB2 inhibition and less inhibition of IKBa degradation. IkBa is a target of […], and this assay provides insight into the specificity of the compounds. These tests led to the selection of three active compounds that passed inhibition and selectivity thresholds and, thus, were suitable for use in cosmetic compositions. These were thymoquinone, lapachol and myrtucommulone C.
The Table below reports the ability of compounds to disrupt CUL4A activity in vitro (in a cell free CUL4 inhibition assay) ascertained from the BPB-CUL4A AlphaLISA assay. Activity above 30% was set to distinguish true hits from false positives.
In general terms: Alpha assays give light when donor and acceptor beads are brought close together.

The target in data set [5] is T1, CUL4A (Mus musculus, UniProt Q3TCH7).
T1 construct: endogenous in cells; host or cells: mouse embryonic fibroblast (MEF) cells
In words: cell-based assay, inhibition of DDB2 degradation in MEF cells after UV. The settings on record: DDB2 remaining after UV treatment over baseline compared to DMSO control. On the procedure:
as §3
In this cell-based assay, the % is DDB2 ([…]) remaining after UV treatment over baseline compared to a control group. In the DMSO control group, the DDB2 remaining % was between 20-30%.

Chain of CUL4A (Homo sapiens, UniProt Q13619) (Q13619 whole entry, species assumed): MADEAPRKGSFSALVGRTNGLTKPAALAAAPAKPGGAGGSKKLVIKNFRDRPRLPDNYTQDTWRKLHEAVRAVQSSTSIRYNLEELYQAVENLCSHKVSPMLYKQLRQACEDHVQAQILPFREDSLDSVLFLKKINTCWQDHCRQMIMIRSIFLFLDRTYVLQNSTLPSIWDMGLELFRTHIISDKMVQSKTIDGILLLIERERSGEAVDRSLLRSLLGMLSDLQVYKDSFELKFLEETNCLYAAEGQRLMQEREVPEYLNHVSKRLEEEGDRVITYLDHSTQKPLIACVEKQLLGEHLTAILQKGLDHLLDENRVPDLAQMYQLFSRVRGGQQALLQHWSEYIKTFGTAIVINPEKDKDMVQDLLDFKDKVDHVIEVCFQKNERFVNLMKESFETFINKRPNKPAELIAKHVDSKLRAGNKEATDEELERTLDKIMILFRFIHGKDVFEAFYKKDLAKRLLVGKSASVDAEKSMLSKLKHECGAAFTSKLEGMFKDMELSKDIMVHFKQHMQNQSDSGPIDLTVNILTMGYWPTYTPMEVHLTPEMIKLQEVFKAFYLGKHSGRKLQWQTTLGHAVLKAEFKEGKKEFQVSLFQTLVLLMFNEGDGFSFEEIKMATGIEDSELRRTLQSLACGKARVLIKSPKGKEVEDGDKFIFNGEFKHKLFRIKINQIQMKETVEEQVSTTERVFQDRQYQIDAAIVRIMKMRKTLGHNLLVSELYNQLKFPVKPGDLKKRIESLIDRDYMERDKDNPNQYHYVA
T1 sequence (Q3TCH7 whole entry): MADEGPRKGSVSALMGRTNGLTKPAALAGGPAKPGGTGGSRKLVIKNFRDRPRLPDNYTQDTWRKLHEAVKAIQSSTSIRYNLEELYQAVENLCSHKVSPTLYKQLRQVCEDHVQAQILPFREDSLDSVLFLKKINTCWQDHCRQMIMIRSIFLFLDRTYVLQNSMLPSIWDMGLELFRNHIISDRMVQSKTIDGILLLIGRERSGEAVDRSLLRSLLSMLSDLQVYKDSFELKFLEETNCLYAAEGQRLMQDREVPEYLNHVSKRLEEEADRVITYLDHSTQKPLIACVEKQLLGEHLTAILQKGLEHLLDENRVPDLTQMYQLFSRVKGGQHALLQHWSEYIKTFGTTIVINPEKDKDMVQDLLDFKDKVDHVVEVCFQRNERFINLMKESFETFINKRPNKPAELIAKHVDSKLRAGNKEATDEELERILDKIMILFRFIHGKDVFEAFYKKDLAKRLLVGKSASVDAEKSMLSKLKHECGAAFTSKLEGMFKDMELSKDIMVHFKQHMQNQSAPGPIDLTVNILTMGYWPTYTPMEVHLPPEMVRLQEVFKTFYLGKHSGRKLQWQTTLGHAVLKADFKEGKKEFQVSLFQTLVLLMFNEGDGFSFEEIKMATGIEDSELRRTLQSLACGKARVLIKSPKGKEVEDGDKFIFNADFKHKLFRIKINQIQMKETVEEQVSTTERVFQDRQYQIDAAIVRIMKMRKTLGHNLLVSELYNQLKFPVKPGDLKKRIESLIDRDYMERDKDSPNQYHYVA

Regarding `NC(=O)c1cccnc1` [Niacinamide, reference compound], the “Avg (% Untreated)” value in the data set with human fibroblast cell (12.5 microMolar) was determined as 2216%. Moreover, the “Avg (% of untreated)” value turned out to be 105% in data set [1] (3.1 mM); 106% in data set [1] (6.2 mM); 104% in data set [1] (12.5 mM); 108% in data set [1] (25 mM); 95% in data set [1] (50 mM); 58% in data set [1] (100 mM). Also, the “Avg (% of untreated)” value in data set [1] (200 mM) was determined as 46%; in data set [2] (3.1 mM), 100%; in data set [2] (6.2 mM), 99%; in data set [2] (12.5 mM) it was 97%; in data set [2] (25 mM), 100%; in data set [2] (50 mM), 91%. The “Avg (% of untreated)” value is reported as 89% in data set [2] (100 mM) and 61% in data set [2] (200 mM). Also, the “concentrations that showed no cytotoxicity” value in data set [1] is recorded as “up to 50 mM”; in data set [2] it was “up to 100 mM”. In addition, the “expression of ASS1 and PTGS2” value in data set [3] was “affected”. Besides, the “expression of DNAJB9” value in data set [3] was “downregulated”. Further, in data set [3], the “expression of IL1RG and IL1RL1 receptors” value is on record as “no effect”. Moreover, in data set [3], the “expression of IL6 and IL1RL1 receptor” value is listed as “upregulated”. In addition, the “expression of TYMS” value in data set [3] is listed as “downregulated”. Also, in data set [3], the “expression of VEGFA” value is “no effect”. The “gene expression in Metabolism of Xenobiotics by Cytochrome P450 and Steroid Hormone Biosynthesis Pathways” value in data set [3] is “no major effect”. For the same compound, in data set [3] (CDK1, PLK1, RB1, CDC25C, CDC25B, MAD2L1, CDKN2B, CCNA2, MAD1L1, TTK, ZBTB17, RBL1, CCNB1, CCNB2, BUB1, CDC20, PTTG1, BUB1B), the “expression of cell cycle genes” value was “downregulated only some of the genes”. In data set [3] (COG6, ARFGAP3, IFT20), the “expression of Golgi apparatus genes with the exception of MGAT4A” value is given as “not affected”. In data set [3] (compared with RGN1518), the “expression of FGF2” value is “upregulated FGF2 to lesser extend”. The “Mineral Absorption Pathway” value with human fibroblasts is reported as “affected”. For the same compound, the “vascular wound healing, spreading of epidermal cells and vasculature development (gene profile)” value in the data set with human fibroblasts is given as “no effect”.
Turning to `CC(C)C(=O)c1c(O)c(C(C2=C(O)C(C)(C)C(=O)C(C)(C)C2=O)C(C)C)c(O)c2c1OC1=C(C(=O)C(C)(C)C(=O)C1(C)C)C2C(C)C` (centres unmarked) [Myrtucommulone C, myrtucommulone C], the “% Inhibitory Activity” value on CUL4A [4] stood at 48.9%. Besides, the “DDB2 remaining after UV (% of baseline)” value at CUL4A [5] was determined as 115%. For the same compound, in the data set on human fibroblast cell (12.5 microMolar), the “Avg (% Untreated)” value is 1362%.
With `CC1=CC(=O)C(C(C)C)=CC1=O` [Thymoquinone, 2-isopropyl-5-methylbenzo-1,4-quinone], at CUL4A [4], the “% Inhibitory Activity” value came out at 70.4%. Further, the “DDB2 remaining after UV (% of baseline)” value on CUL4A [5] stood at 85%. For the same compound, in the data set with human fibroblast cell (12.5 microMolar), the “Avg (% Untreated)” value is reported as 2554%.
On to `CC(C)=CCC1=C(O)C(=O)c2ccccc2C1=O` [Lapachol, 2-hydroxy-3-(3-methylbut-2-enyl)naphthalene-1,4-dione], for which, on CUL4A [4], the “% Inhibitory Activity” value came to 34.4%. For the same compound, the “DDB2 remaining after UV (% of baseline)” value on CUL4A [5] was 80%. In addition, in the data set on human fibroblast cell (3 microMolar), the “Avg (% Untreated)” value was 2076%. In addition, the “Avg (% of untreated)” value in data set [1] (15.5 μM) was 86%; in data set [1] (31.1 μM), 86%; in data set [1] (62.25 μM), 84%; in data set [2] (15.5 μM) it was 99%; in data set [2] (31.1 μM), 98%; in data set [2] (62.25 μM), 100%. Further, the “concentrations that showed no cytotoxicity” value in data set [1] (cytotoxic = inhibition of viability of more than 20%) is given as “up to 62.25 μM”; in data set [2] (unit not given), “up to 62.25”. In addition, the “gene expression in Metabolism of Xenobiotics by Cytochrome P450 and Steroid Hormone Biosynthesis Pathways” value in data set [3] is “induced differential gene expression”. Besides, the “number of genes downregulated” value stood at 556 genes in data set [3] (31 μM, of 24905 assessed genes); 461 genes in data set [3] (62 μM); 30 genes in the data set with human fibroblasts (31 μM, 24 h, of 24905 genes). Also, the “number of genes upregulated” value in data set [3] (31 μM, of 24905 assessed genes) turned out to be 250 genes; in data set [3] (62 μM), 258 genes; in the data set on human fibroblasts (31 μM, 24 h, of 24905 genes), 104 genes. Besides, in data set [3] (CYP1A1, CYP1B1, CYP2BG, GSTM3, AKR1C1, AKR1C2, AKR1C3, AKR1B15), the “expression of phase-I detoxification and steroid hormone biosynthesis genes” value is “upregulated”. The “expression of genes important for normal differentiation and function of skin” value in data set [3] (FGF2, CSF1, SLCO2A1, SERPINB1) is listed as “upregulated”. Moreover, in data set [3] (IL6, IL1R2, IL2RG, IL1RL1), the “expression of genes associated with inflammation” value is listed as “upregulated”. The “expression of Cell Cycle Pathway genes” value in data set [3] (MAD2L1, CDC20, CCNE2, CCNA2, CCNB2, CCNB1, BUB1, PLK1, CDC25C, BUB1B, TTK, ORC1, MCM6) was “downregulated”. In the data set on human fibroblasts (at either concentration), the “expression of RGCC and PTGS2 (regulation of fibroblast growth factor production)” value is listed as “upregulated”. The “number of genes involved in regulation of endothelial cell migration upregulated” value in the data set on human fibroblasts (out of 70 genes) is on record as 3 genes.
